System: NCI-H23 complex spheroids with HUVEC/MSC, viability
Assay: Anticancer human tumor NCI-H23 cell line growth inhibition [RAS];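 note: spheroids exposed to compound for 7 days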;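 for viability, T/C: 100% = DMSO vehicle control viability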
Details: for IC50: curve of first compound; for viability, T/C: stronger effect = lower value
In short: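 Tumour cells grown as complex spheroids with HUVEC endothelial cells and mesenchymal stem cells, treated with RAS pathway inhibitor combinations. Each agent spans half-log steps from near clinical Cmax, or 10 microM where Cmax is unknown.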

[1] = second compound 0.0316 µM, first compound 0.00316 µM
[2] = second compound 0.0316 µM, first compound 0.01 µM
[3] = second compound 0.0316 µM, first compound 0.0316 µM
[4] = second compound 0.0316 µM, first compound 0.1 µM
[5] = second compound 0.0316 µM, first compound 0.316 µM
[6] = second compound 0.0316 µM, first compound 1 µM
[7] = second compound 0.1 µM, first compound 0.00316 µM
[8] = second compound 0.1 µM, first compound 0.01 µM
[9] = second compound 0.1 µM, first compound 0.0316 µM
[10] = second compound 0.1 µM, first compound 0.1 µM
[11] = second compound 0.1 µM, first compound 0.316 µM
[12] = second compound 0.1 µM, first compound 1 µM
[13] = second compound 0.316 µM, first compound 0.00316 µM
[14] = second compound 0.316 µM, first compound 0.01 µM
[15] = second compound 0.316 µM, first compound 0.0316 µM
[16] = second compound 0.316 µM, first compound 0.1 µM
[17] = second compound 0.316 µM, first compound 0.316 µM
[18] = second compound 0.316 µM, first compound 1 µM
[19] = second compound 1 µM, first compound 0.00316 µM
[20] = second compound 1 µM, first compound 0.01 µM
[21] = second compound 1 µM, first compound 0.0316 µM
[22] = second compound 1 µM, first compound 0.1 µM
[23] = second compound 1 µM, first compound 0.316 µM
[24] = second compound 1 µM, first compound 1 µM

O=C(c1ccc(F)c(F)c1Nc1ccc(I)cc1F)N1CC(O)([C@@H]2CCCCN2)C1 + C=CC(=O)N1CCN(c2nc(OCC3CCCN3C)nc3c(F)c(-c4nc(N)cc(C)c4C(F)(F)F)c(Cl)cc23)C(C)C1 gave an IC50 (second compound 0.00316 µM) of 43.5 nM, an IC50 (second compound 0.01 µM) of 4.49 nM and an IC50 (second compound 0.0316 µM) of under 3.16 nM. It also gave an IC50 (second compound 0.1 µM) of under 3.16 nM, an IC50 (second compound 0.316 µM) of under 3.16 nM and an IC50 (second compound 1 µM) of under 3.16 nM. It also gave a viability, T/C (second compound 0.00316 µM, first compound 0.00316 µM) of 58.7%, a viability, T/C (second compound 0.00316 µM, first compound 0.01 µM) of 61% and a viability, T/C (second compound 0.00316 µM, first compound 0.0316 µM) of 52.9%. For the same molecule, the viability, T/C (second compound 0.00316 µM, first compound 0.1 µM) was 40.7%, the viability, T/C (second compound 0.00316 µM, first compound 0.316 µM) was 29.3% and the viability, T/C (second compound 0.00316 µM, first compound 1 µM) was 16.8%. It also gave a viability, T/C (second compound 0.01 µM, first compound 0.00316 µM) of 50.9%, a viability, T/C (second compound 0.01 µM, first compound 0.01 µM) of 50.1% and a viability, T/C (second compound 0.01 µM, first compound 0.0316 µM) of 41.1%. The viability, T/C (second compound 0.01 µM, first compound 0.1 µM) was 40%, the viability, T/C (second compound 0.01 µM, first compound 0.316 µM) was 28.6% and the viability, T/C (second compound 0.01 µM, first compound 1 µM) was 14.9%. It also gave a viability, T/C [1] of 44.7%, a viability, T/C [2] of 48.9% and a viability, T/C [3] of 37.2%. It also gave a viability, T/C [4] of 32.4%, a viability, T/C [5] of 24% and a viability, T/C [6] of 11.8%. It also gave a viability, T/C [7] of 37.1%, a viability, T/C [8] of 40.2% and a viability, T/C [9] of 33.3%. The viability, T/C [10] was 28.9%, the viability, T/C [11] was 24% and the viability, T/C [12] was 13.4%. The viability, T/C [13] was 40%, the viability, T/C [14] was 37.5% and the viability, T/C [15] was 30.6%. It also gave a viability, T/C [16] of 28%, a viability, T/C [17] of 21.2% and a viability, T/C [18] of 13.7%. For the same molecule, the viability, T/C [19] was 39%, the viability, T/C [20] was 38.4% and the viability, T/C [21] was 31.4%. The viability, T/C [22] was 32.7%, the viability, T/C [23] was 24.2% and the viability, T/C [24] was 12.6%.
Nc1ccn(C2OC(CO)C(O)C2(F)F)c(=O)n1 (centres undefined) + C#Cc1c(F)ccc2cc(O)cc(-c3ncc4c(N5CC6CCC(C5)N6)nc(OCC56CCCN5CC(F)C6)nc4c3F)c12 showed an IC50 (second compound 0.0316 µM) of 5.53 nM, an IC50 (second compound 0.1 µM) of 5.82 nM and an IC50 (second compound 0.316 µM) of 5.83 nM. It also gave an IC50 (second compound 1 µM) of 4.97 nM, an IC50 (second compound 3.16 µM) of under 3.16 nM and an IC50 (second compound 10 µM) of under 3.16 nM. It also gave a viability, T/C [1] of 79.1%, a viability, T/C [2] of 19.3% and a viability, T/C [3] of 9.28%. The viability, T/C [4] was 9.72%, the viability, T/C [5] was 8.73% and the viability, T/C [6] was 9.82%. For the same molecule, the viability, T/C [7] was 86.3%, the viability, T/C [8] was 17.8% and the viability, T/C [9] was 8.54%. For the same molecule, the viability, T/C [10] was 7.52%, the viability, T/C [11] was 10.5% and the viability, T/C [12] was 8.63%. The viability, T/C [13] was 88.8%, the viability, T/C [14] was 15.8% and the viability, T/C [15] was 7.89%. The viability, T/C [16] was 5.29%, the viability, T/C [17] was 6.95% and the viability, T/C [18] was 7.88%. For the same molecule, the viability, T/C [19] was 74.8%, the viability, T/C [20] was 12.1% and the viability, T/C [21] was 4.25%. The viability, T/C [22] was 5%, the viability, T/C [23] was 5.26% and the viability, T/C [24] was 7.16%. The viability, T/C (second compound 3.16 µM, first compound 0.00316 µM) was 45.2%, the viability, T/C (second compound 3.16 µM, first compound 0.01 µM) was 5.88% and the viability, T/C (second compound 3.16 µM, first compound 0.0316 µM) was 3.82%. For the same molecule, the viability, T/C (second compound 3.16 µM, first compound 0.1 µM) was 2.55%, the viability, T/C (second compound 3.16 µM, first compound 0.316 µM) was 3.3% and the viability, T/C (second compound 3.16 µM, first compound 1 µM) was 3.59%. For the same molecule, the viability, T/C (second compound 10 µM, first compound 0.00316 µM) was 23.2%, the viability, T/C (second compound 10 µM, first compound 0.01 µM) was 5.01% and the viability, T/C (second compound 10 µM, first compound 0.0316 µM) was 4.01%. The viability, T/C (second compound 10 µM, first compound 0.1 µM) was 2.92%, the viability, T/C (second compound 10 µM, first compound 0.316 µM) was 3.19% and the viability, T/C (second compound 10 µM, first compound 1 µM) was 3.79%.
